Results as given in the supplement of paper PMC11208160.

assay: recombinant UMI read abundance after kanamycin selection (control-corrected) (log10(CPM+1)); higher = more efficient recombination; extreme values may be limits of the assay; sequences stand for … in AGTGCAGAGAAAATCGGCCAGTTTTCTCTGCCTGCAGTCCGCATGCCGTGGGACCCCTTGGGTTCTAACCTGTTGCCTAGATTTATGCAGCGGACTGCCTTTCTCCCAAAGTGATAAACCGG…AGGTTGGTTTCACT; site = the 11-nt donor
Method in brief: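 Each donor and donor-binding-loop pair was tracked by a 12-nt UMI on a plasmid carrying a promoterless kanamycin gene. With a second plasmid supplying a fixed target and T7-inducible IS621 bridge recombinase, the pool was plated in Escherichia coli on IPTG (0.07 mM) plus kanamycin or unselected. Sequencing of recombinant UMIs across the donor–target junction gave counts expressed as log10(CPM+1) after replicate averaging and control-derived scaling.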
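Also: IS621 bridge recombinase in Escherichia coli cells against a fixed T5 target plasmid.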

Sequence | recombinant UMI read abundance (log10)
TGGACTCCATGGACCGGTTTTCCCGGTAATCCGTATTTGTT (site CGGAATCCTAA) | 0
TGGACTCCATGGACCGGTTTTCCCGGTAATCCGTATTTGTT (site TGGACTCCTAA) | 0.214
TGGAGCTCATGGACCGGTTTTCCCGGTAATCCGTATTTGCG (site TGGAGCTCTCG) | 2.13
TGGATACCATGGACCGGTTTTCCCGGTAATCCGTATTTGCG (site TGGATACCTCG) | 0
TGGCCTTCATGGACCGGTTTTCCCGGTAATCCGTATTTGGT (site TAGCCTTCTAC) | 0
TGGCCTTCATGGACCGGTTTTCCCGGTAATCCGTATTTGGT (site TCGCCTTCTAC) | 1.02
TGGCCTTCATGGACCGGTTTTCCCGGTAATCCGTATTTGGT (site TGGCCTTCTAC) | 0.00327
TGGCCTTCATGGACCGGTTTTCCCGGTAATCCGTATTTGGT (site TTGCCTTCTAC) | 0.00662
TGGCTGCCATGGACCGGTTTTCCCGGTAATCCGTATTTGGT (site TGGCTGCCTAC) | 0.0264
TGGGAGTCATGGACCGGTTTTCCCGGTAATCCGTATTTGCC (site AGGGAGTCTGG) | 0
TGGGAGTCATGGACCGGTTTTCCCGGTAATCCGTATTTGCC (site CGGGAGTCTGG) | 0
TGGGAGTCATGGACCGGTTTTCCCGGTAATCCGTATTTGCC (site GGGGAGTCTGG) | 0.0303
TGGGAGTCATGGACCGGTTTTCCCGGTAATCCGTATTTGCC (site TGGGAGTCTGG) | 2.34
TGGGGACCATGGACCGGTTTTCCCGGTAATCCGTATTTGCG (site TGGGGACCTCG) | 0.00873
TGGGGTACATGGACCGGTTTTCCCGGTAATCCGTATTTGGG (site TGGGGTACTCC) | 0.0151
TGGGTACCATGGACCGGTTTTCCCGGTAATCCGTATTTGTT (site TGGGTACCTAA) | 0.0105
TGGGTATCATGGACCGGTTTTCCCGGTAATCCGTATTTGCA (site TGGGTATCTTG) | 1.83
TGGGTCCCATGGACCGGTTTTCCCGGTAATCCGTATTTGGT (site TGGGTCCCTAC) | 0.00844
TGGTAGGCATGGACCGGTTTTCCCGGTAATCCGTATTTGGT (site TGATAGGCTAC) | 0.0183
TGGTAGGCATGGACCGGTTTTCCCGGTAATCCGTATTTGGT (site TGCTAGGCTAC) | 0.00286
TGGTAGGCATGGACCGGTTTTCCCGGTAATCCGTATTTGGT (site TGGTAGGCTAC) | 0.848
TGGTAGGCATGGACCGGTTTTCCCGGTAATCCGTATTTGGT (site TGTTAGGCTAC) | 0.307
TGGTGATCATGGACCGGTTTTCCCGGTAATCCGTATTTGGG (site TGGTGATCTCC) | 0.238
TGGTGGACATGGACCGGTTTTCCCGGTAATCCGTATTTGTT (site TGGTGGACTAA) | 0.734
TGGTTATCATGGACCGGTTTTCCCGGTAATCCGTATTTGGT (site TGGTTATCTAC) | 1.78
TGGTTCGCATGGACCGGTTTTCCCGGTAATCCGTATTTGGA (site TGGTTCGCTTC) | 0.00761

Sequence | recombinant UMI read abundance (log10)
TGGTTTCCATGGACCGGTTTTCCCGGTAATCCGTATTTGCA (site TGGTTTCCTTG) | 0
TGTAAGACATGGACCGGTTTTCCCGGTAATCCGTATTTGCG (site TGTAAGACTCG) | 0.934
TGTAAGCCATGGACCGGTTTTCCCGGTAATCCGTATTTGAC (site TGTAAGCCTGT) | 0
TGTACACCATGGACCGGTTTTCCCGGTAATCCGTATTTGCC (site TGTACACCTGA) | 0
TGTACACCATGGACCGGTTTTCCCGGTAATCCGTATTTGCC (site TGTACACCTGC) | 0
TGTACACCATGGACCGGTTTTCCCGGTAATCCGTATTTGCC (site TGTACACCTGG) | 0
TGTACACCATGGACCGGTTTTCCCGGTAATCCGTATTTGCC (site TGTACACCTGT) | 0
TGTACAGCATGGACCGGTTTTCCCGGTAATCCGTATTTGAA (site TGTACAGCTTT) | 0.369
TGTACCACATGGACCGGTTTTCCCGGTAATCCGTATTTGTA (site TGTACCACTTA) | 0.131
TGTAGACCATGGACCGGTTTTCCCGGTAATCCGTATTTGAC (site TGTAAACCTGT) | 0
TGTAGACCATGGACCGGTTTTCCCGGTAATCCGTATTTGAC (site TGTACACCTGT) | 0
TGTAGACCATGGACCGGTTTTCCCGGTAATCCGTATTTGAC (site TGTAGACCTGT) | 0
TGTAGACCATGGACCGGTTTTCCCGGTAATCCGTATTTGAC (site TGTATACCTGT) | 0
TGTAGGTCATGGACCGGTTTTCCCGGTAATCCGTATTTGAA (site TGTAGGTCTTT) | 0.238
TGTAGGTCATGGACCGGTTTTCCCGGTAATCCGTATTTGGT (site TGTAGGTCTAC) | 0.355
TGTATACCATGGACCGGTTTTCCCGGTAATCCGTATTTGAC (site TGTAAACCTGT) | 0
TGTATACCATGGACCGGTTTTCCCGGTAATCCGTATTTGAC (site TGTACACCTGT) | 0
TGTATACCATGGACCGGTTTTCCCGGTAATCCGTATTTGAC (site TGTAGACCTGT) | 0
TGTATACCATGGACCGGTTTTCCCGGTAATCCGTATTTGAC (site TGTATACCTGT) | 0
TGTCAGCCATGGACCGGTTTTCCCGGTAATCCGTATTTGGC (site TGTCAGCCTGC) | 0.0152
TGTCCACCATGGACCGGTTTTCCCGGTAATCCGTATTTGAC (site TGTACACCTGT) | 0
TGTCCACCATGGACCGGTTTTCCCGGTAATCCGTATTTGAC (site TGTCCACCTGT) | 0
TGTCCACCATGGACCGGTTTTCCCGGTAATCCGTATTTGAC (site TGTGCACCTGT) | 0
TGTCCACCATGGACCGGTTTTCCCGGTAATCCGTATTTGAC (site TGTTCACCTGT) | 0
TGTCCAGCATGGACCGGTTTTCCCGGTAATCCGTATTTGTG (site TGTCCAGCTCA) | 0.0483
TGTCCTACATGGACCGGTTTTCCCGGTAATCCGTATTTGTG (site TGTCCTACTCA) | 0.266
